Reference: US8217050B2, “Adenine derivative as inhibitors of HSP90 for the treatment of cancer” (Chroma Therapeutics Limited, priority 2006, dated 2012)

Assays:
[1] = tested on: HCT 116 cell line; assay: Cell inhibition assay (WST-1 cell proliferation, 120 hrs); assay type: cell-based; details: Homo sapiens, HCT-116, 120 hrs, read-out: Inhibitor Activity vs HCT 116 cell line
Method: Cells were seeded in 96W tissue culture plates (1 well=30 mm^2) at a density of 500 cells per well in 50 μl of the appropriate culture medium (see below). 24 hrs later 50 μl of the compound prepared in the same medium was added as 4 fold dilutions to give final concentrations in the range 0.15 nM-2500 nM (n=6 for each concentration). The plates were then incubated at 37° C., 5% CO2 for 120 hrs. Cell proliferation was assessed using WST-1 (a metabolic indicator dye, Roche Cat no. 1 644 807) according to the manufacturers instructions. The results were calculated as percentage of vehicle response and IC50 values represent the concentration of compound that inhibited the vehicle response by 50%. HCT-116 Culture Medium—Dulbeccos MEM (Sigma D6546) plus 10% heat inactivated fetal calf serum (Hyclone SH30071 Thermo Fischer Scientific) containing 2 mM Glutamine (Sigma cat no G-7513) and 50 U/ml Penicillin and Streptomycin Sulphate (Sigma Cat no P-0781).
Data were expressed as a percentage inhibition of the control, measured in the absence of inhibitor, as follows: % inhibition=100−((S^i/S^o)×100) where S^i is the signal in the presence of inhibitor and S0 is the signal in the presence of DMSO.
IC50 values were determined by non-linear regression analysis, after fitting the results of eight data points to the equation for sigmoidal dose response with variable slope (% activity against log concentration of compound), using Graphpad Prism® software.

[2] = target: T1, human recombinant his-tagged HSP90α (Homo sapiens, UniProt P07900); assay: Hsp90 HTRF assay (competition with biotinylated GM for binding to HSP90); details: bio-GM displacement, 20 h incubation at room temperature, read-out: Inhibitor Activity vs Hsp90
T1 construct: purchased Prospec Technogene #HSP90
Description: An HTRF (homogeneous time resolved fluorescence assay) assay was used to measure the interaction of the compounds with HSP90.
The assay measures binding of biotinylated GM (bio-GM; Biomol, #EI-341, lot: A9199a) to human recombinant his-tagged HSP90α (HSP90; Prospec Technogene, #HSP90, lot: 260HSP9001). A signal is generated by fluorescence resonance energy transfer from an Europium-cryptate labeled anti-his antibody (anti-6HIS-Cryptate; Cisbio International, #61HISKLA, lot: 33V) via the HSP90-GM-biotin complex to a fluorescence acceptor (allophycocyanin) linked to streptavidin (SA-XL; Cisbio International, #610SAXLB, lot: 089).
Unlabeled GM or compounds compete with the bio-GM for binding to HSP90 resulting in reduced fluorescence energy transfer/assay signal.
For the assay a preformed (1 h incubation) complex of HSP90 with the anti-his-K is added to the compound solution in a 384 well microplate (Corning, #3710) and incubated for 15 min. A preformed (1 h incubation) complex of bio-GM with the SA-XL was added to the wells and incubated for 20 h. All incubations were performed at room temperature. The final assay volume was 50 μl/well. The final concentrations in the assay were: 50 mM Hepes pH 7.3, 50 mM NaCl, 100 mM KF, 1 mM EDTA, 1 mM DTT, 0.1% Triton-X-100, 1 nM anti-his-K, 40 nM HSP90, 40 nM SA-XL, 40 nM bio-GM. Test compounds were dissolved in DMSO, prediluted in assay buffer and tested at a final concentration between 5000 nM and 0.3 nM. The resulting DMSO concentration was 0.5% and included in all controls. High controls were without test compounds, low controls without test compounds, without HSP90 and without bio-GM. As a reference inhibitor unlabeled GM was used in the same concentrations as the test compounds.
Inhibition was calculated compared to the assay controls using an Excel spreadsheet (Microsoft). IC50 values were calculated by non-linear least squares fitting to the standard dose-response model using GraphPad Prism (GraphPad Software Inc).

| IC50 [1] [µM] | IC50 [2] [µM] | SMILES |
| --- | --- | --- |
|  | 1 to 10 | Nc1ncnc2c1nc(Sc1cc3c(cc1Br)OCO3)n2-c1ccc(C[C@H](N)C(=O)OC2CCCC2)cc1 [Example 8, Cyclopentyl 4-{6-amino-8-[(6-bromo-1,3-benzodioxol-5-yl)thio]-9H-purin-9-yl}-L-phenylalaninate] |
|  | < 1 | Nc1ncnc2c1nc(Sc1cc3c(cc1I)OCO3)n2CCC[C@H](N)C(=O)O [Example 9, (S)-2-amino-5-(6-amino-8-(6-iodobenzo[d][1,3]dioxol-5-ylthio)-9H-purin-9-yl)pentanoic acid] |
|  | < 1 | Nc1ncnc2c1nc(Sc1cc3c(cc1I)OCO3)n2CC[C@H](N)C(=O)O [Example 10, (S)-2-amino-4-(6-amino-8-(6-iodobenzo[d][1,3]dioxol-5-ylthio)-9H-purin-9-yl)butanoic acid] |
|  | 1 to 10 | Nc1ncnc2c1nc(Sc1ccc3c(c1)OCO3)n2-c1ccc(C[C@H](N)C(=O)O)cc1 [Example 13, 4-{6-amino-8-[(1,3-benzodioxol-5-yl)thio]-9H-purin-9-yl}-L-phenylalanine] |
|  | < 1 | Nc1ncnc2c1nc(Sc1cc3c(cc1Br)OCO3)n2-c1ccc(C[C@H](N)C(=O)O)cc1 [Example 14, 4-{6-amino-8-[(6-bromo-1,3-benzodioxol-5-yl)thio]-9H-purin-9-yl}-L-phenyl alanine] |

More lines, now with the values behind:

| SMILES | IC50 [1] [µM] | IC50 [2] [µM] |
| --- | --- | --- |
| Nc1ncnc2c1nc(Sc1cc3c(cc1I)OCO3)n2CCC[C@H](N)C(=O)OC1CCCC1 [Example 1, (S)-Cyclopentyl 2-amino-5-(6-amino-8-(6-iodobenzo[d][1,3]dioxol-5-ylthio)-9H-purin-9-yl)pentanoate] | < 1 | < 1 |
| Nc1ncnc2c1nc(Sc1cc3c(cc1I)OCO3)n2CC[C@H](N)C(=O)OC1CCCC1 [Example 2, (S)-cyclopentyl 2-amino-4-(6-amino-8-(6-iodobenzo[d][1,3]dioxol-5-ylthio)-9H-purin-9-yl)butanoate] | < 1 | < 1 |
| Nc1ncnc2c1nc(Sc1cc3c(cc1I)OCO3)n2CCC[C@@H](N)C(=O)OC1CCCC1 [Example 3, (R)-Cyclopentyl 2-amino-5-(6-amino-8-(6-iodobenzo[d][1,3]dioxol-5-ylthio)-9H-purin-9-yl)pentanoate] | < 1 | < 1 |
| Nc1ncnc2c1nc(Sc1cc3c(cc1I)OCO3)n2CC[C@@H](N)C(=O)OC1CCCC1 [Example 4, (R)-cyclopentyl 2-amino-4-(6-amino-8-(6-iodobenzo[d][1,3]dioxol-5-ylthio)-9H-purin-9-yl)butanoate] | < 1 | < 1 |
| CC(C)(C)OC(=O)[C@@H](N)CCCn1c(Sc2cc3c(cc2I)OCO3)nc2c(N)ncnc21 [Example 5, (S)-tert-Butyl 2-amino-5-(6-amino-8-(6-iodobenzo[d][1,3]dioxol-5-ylthio)-9H-purin-9-yl)pentanoate] | 1 to 10 | < 1 |
| Nc1ncnc2c1nc(Sc1cc3c(cc1I)OCO3)n2C[C@H](N)C(=O)OC1CCCC1 [Example 6, Cyclopentyl 3-{6-amino-8-[(6-iodo-1,3-benzodioxol-5-yl)thio]-9H-purin-9-yl}-L-alaninate] |  | < 1 |
| Nc1ncnc2c1nc(Sc1ccc3c(c1)OCO3)n2-c1ccc(C[C@H](N)C(=O)OC2CCCC2)cc1 [Example 7, Cyclopentyl 4-{6-amino-8-[(1,3-benzodioxol-5-yl)thio]-9H-purin-9-yl}-L-phenylalaninate] |  | 1 to 10 |
